Source: patent US11104661B1, “Inhibiting human integrin (α-4) (β-7)” (Morphic Therapeutic, Inc., priority 2019, dated 2021)

Biological target: T1, α4β7 (Homo sapiens, UniProt P13612+P26010)
T1 construct: endogenous in cells; host or cells: RPMI 8866 cells
T1 sequence (P13612 34-1032): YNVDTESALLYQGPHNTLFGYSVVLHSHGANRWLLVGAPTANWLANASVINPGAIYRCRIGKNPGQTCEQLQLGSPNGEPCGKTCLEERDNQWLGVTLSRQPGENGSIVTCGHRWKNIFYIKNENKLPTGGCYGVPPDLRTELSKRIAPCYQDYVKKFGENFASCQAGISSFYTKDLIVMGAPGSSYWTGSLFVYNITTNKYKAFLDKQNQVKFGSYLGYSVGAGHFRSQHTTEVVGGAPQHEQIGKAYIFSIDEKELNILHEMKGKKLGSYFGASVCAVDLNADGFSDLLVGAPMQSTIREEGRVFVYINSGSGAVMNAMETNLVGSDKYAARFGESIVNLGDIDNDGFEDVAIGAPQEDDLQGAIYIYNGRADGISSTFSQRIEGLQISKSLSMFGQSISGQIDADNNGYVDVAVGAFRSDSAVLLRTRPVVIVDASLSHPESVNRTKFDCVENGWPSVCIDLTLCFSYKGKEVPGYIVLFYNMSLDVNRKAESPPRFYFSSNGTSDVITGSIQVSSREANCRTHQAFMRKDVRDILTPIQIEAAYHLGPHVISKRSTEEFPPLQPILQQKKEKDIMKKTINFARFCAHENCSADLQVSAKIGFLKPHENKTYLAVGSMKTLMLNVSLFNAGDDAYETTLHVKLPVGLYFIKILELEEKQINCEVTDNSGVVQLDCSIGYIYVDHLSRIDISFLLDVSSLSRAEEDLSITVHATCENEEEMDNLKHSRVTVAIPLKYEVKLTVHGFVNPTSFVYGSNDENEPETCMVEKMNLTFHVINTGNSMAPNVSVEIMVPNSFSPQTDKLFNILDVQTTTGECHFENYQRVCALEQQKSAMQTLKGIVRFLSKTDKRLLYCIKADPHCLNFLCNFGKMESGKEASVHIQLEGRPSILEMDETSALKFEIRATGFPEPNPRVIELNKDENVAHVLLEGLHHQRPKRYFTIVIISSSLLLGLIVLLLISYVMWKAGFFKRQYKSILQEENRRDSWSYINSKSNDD
T1 sequence (P26010 20-798): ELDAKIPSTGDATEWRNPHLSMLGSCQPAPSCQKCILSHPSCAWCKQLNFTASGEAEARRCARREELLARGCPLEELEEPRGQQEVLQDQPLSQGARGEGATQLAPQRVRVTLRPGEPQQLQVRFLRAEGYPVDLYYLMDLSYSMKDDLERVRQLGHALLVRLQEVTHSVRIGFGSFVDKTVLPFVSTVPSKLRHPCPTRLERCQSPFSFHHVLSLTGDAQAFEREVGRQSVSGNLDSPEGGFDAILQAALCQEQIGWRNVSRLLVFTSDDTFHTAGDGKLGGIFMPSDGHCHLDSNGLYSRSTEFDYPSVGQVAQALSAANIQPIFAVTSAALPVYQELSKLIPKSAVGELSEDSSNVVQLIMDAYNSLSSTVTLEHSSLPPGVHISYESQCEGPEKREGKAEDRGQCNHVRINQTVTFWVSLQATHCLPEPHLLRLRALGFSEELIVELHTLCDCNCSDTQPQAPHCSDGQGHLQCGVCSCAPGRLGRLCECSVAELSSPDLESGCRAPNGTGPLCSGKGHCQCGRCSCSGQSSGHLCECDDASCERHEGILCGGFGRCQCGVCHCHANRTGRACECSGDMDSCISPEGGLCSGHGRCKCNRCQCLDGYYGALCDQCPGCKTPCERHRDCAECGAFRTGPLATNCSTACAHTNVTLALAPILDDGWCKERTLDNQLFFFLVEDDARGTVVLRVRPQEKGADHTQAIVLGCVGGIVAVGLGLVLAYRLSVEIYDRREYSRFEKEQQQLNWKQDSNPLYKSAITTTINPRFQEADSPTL
Experiment: Cell adhesion assay, RPMI8866 cells on MAdCAM coated plates (Example 7)
Type: cell-based
Conditions: RPMI8866 cells adhering to recombinant human MAdCAM; Table 4 comparative compounds; read-out: CA Assay (Example 7)
Experimental: Three in vitro assays were used to examine the α4β7 mechanistic process used by cells: 1) ligand:receptor affinity, 2) the avidity of those interactions on a cell's surface, and 3) how those interactions fare under an imposing force. In Example 5, a Fluorescence Polarization (FP) assay is used to measure compound activity through binding competition with the fluorescein-labeled peptide. In Example 6, the potency of compounds against α4β7 is measured in the cell-based ligand binding assay (LBA), using RPMI 8866 cells incubated with the compound samples in competition with soluble MAdCAM-1 ligand. In Example 7, activity of compounds is evaluated in a cell adhesion assay that mechanistically tests what occurs in vivo when trafficking cells utilize α4β7 to adhere to MAdCAM-1 expressing HEVs of the gut during the extravasation process. In the cell adhesion assay of Example 7, a MAdCAMI1-(Fc) is coated on plastic, and α4β7 expressing cells (RPMI-8866) are allowed to adhere to the coated surface in the presence of the test compounds. Next, the force of washing with buffer is applied to cells thereby testing the strength of that adhesion. Unattached cells are removed and the remaining adherent cells are quantified.
Example 7 describes a cell adhesion assay.
To each well of a 96 well plate, 100 ug of recombinant human MAdCAM in 100 ul PBS is added and incubated overnight at 4° C. After incubation MAdCAM is removed by aspiration and 200 ul of PBS+1% BSA is added to block the plate for 2 hours at 37° C. and 5% CO2. During this incubation dilution curves of compound are made in 100% DMSO in 96 well V bottom plates. 1.75 ul of diluted compounds are then transferred to a new 96 well U bottom plate containing 20 ul of assay media (phosphate free DMEM+25 mM HEPES+1% BSA). To this an additional 155 ul of assay media is added with mixing by pipetting up and down. This mixture is allowed to incubate for 15 minutes at 37° C. and 5% CO2. After incubation 175 ul of assay media containing 2e6/mL RPMI8866 cells is added to compound containing wells without mixing and plate is allowed to incubate for another 15 minutes at 37° C. and 5% CO2. During this incubation MAdCAM coated plates are removed from incubator and washed twice with 200 ul PBS+0.1% BSA. […] This plate is then incubated at 37° C. and 5% CO2 for 1 hour. After incubation plates are washed twice with 200 ul and once with 50 ul of phenol free RPMI+1% BSA. A final 50 ul of phenol free RPMI+1% BSA is added to wells after last wash. Next 50 ul of Promega cell titer glow is added to the wells. Plate is incubated on shaker for 2 minutes at 200 RPM followed by another 8 minutes off shaker before having the luminescence read on a Biotek Citation 5 plate reader. Raw data is converted to % inhibition compared to bottom of curve and analyzed using a 4-parameter non linear curve in Prism to determine IC50 and IC90.

IC50: > 0.05 µM
Compound: Cc1cccc(C)c1-c1cccc([C@H](CC(=O)O)NC(=O)[C@H](CC(C)C)n2cc(CN3CC(F)C3)ccc2=O)c1 [drawing 604]
